Results: PMC9986241 (Signal Transduction and Targeted Therapy, 2023)
One block for each compound: values may come before it.

How the values were obtained:
Experiment in all cases: KinaseProfiler enzyme profiling
Format in all cases: biochemical
EphA4(h) = biological target: T1, EphA4(h) (Homo sapiens, UniProt P54764); details: 100 nM
T1 construct: purchased Eurofins KinaseProfiler
In short: (§1)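 Panel profiling of erianin at 100 nM over 70 kinases in vitro, performed with 2 repetitions.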

Flt1(h) = biological target: T2, Flt1(h) (Homo sapiens, UniProt P17948); details: 100 nM
T2 construct: purchased Eurofins KinaseProfiler
In short: as §1

Ros(h) = biological target: T3, Ros(h) (Homo sapiens, UniProt P08922); details: 100 nM
T3 construct: purchased Eurofins KinaseProfiler
In short: as §1

CaMKIIδ(h) = biological target: T4, CaMKIIδ(h) (Homo sapiens, UniProt Q13557); details: 100 nM
T4 construct: purchased Eurofins KinaseProfiler
In short: as §1

Wee1(h) = biological target: T5, Wee1(h) (Homo sapiens, UniProt P30291); details: 100 nM
T5 construct: purchased Eurofins KinaseProfiler
In short: as §1

TYK2(h) = biological target: T6, TYK2(h) (Homo sapiens, UniProt P29597); details: 100 nM
T6 construct: purchased Eurofins KinaseProfiler
In short: as §1

Pim-3(h) = biological target: T7, Pim-3(h) (Homo sapiens, UniProt Q86V86); details: 100 nM
T7 construct: purchased Eurofins KinaseProfiler
In short: as §1

EphB1(h) = biological target: T8, EphB1(h) (Homo sapiens, UniProt P54762); details: 100 nM
T8 construct: purchased Eurofins KinaseProfiler
In short: as §1

Pim-2(h) = biological target: T9, Pim-2(h) (Homo sapiens, UniProt Q9P1W9); details: 100 nM
T9 construct: purchased Eurofins KinaseProfiler
In short: as §1

EphB3(h) = biological target: T10, EphB3(h) (Homo sapiens, UniProt P54753); details: 100 nM
T10 construct: purchased Eurofins KinaseProfiler
In short: as §1

ZIPK(h) = biological target: T11, ZIPK(h) (Homo sapiens, UniProt O43293); details: 100 nM
T11 construct: purchased Eurofins KinaseProfiler
In short: as §1

Rsk2(h) = biological target: T12, Rsk2(h) (Homo sapiens, UniProt P51812)
T12 construct: purchased Eurofins KinaseProfiler
In short: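 Compound erianin, 100 nM final, profiled on 70 recombinant kinases in vitro; 2 repeats.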

PAK5(h) = biological target: T13, PAK5(h) (Homo sapiens, UniProt Q9P286)
T13 construct: purchased Eurofins KinaseProfiler
In short: as §1

MST4(h) = biological target: T14, MST4(h) (Homo sapiens, UniProt Q9P289)
T14 construct: purchased Eurofins KinaseProfiler
In short: as §1

CDK18/cyclinY(h) = biological target: T15, CDK18/cyclinY(h) (Homo sapiens, UniProt Q07002)
T15 construct: purchased Eurofins KinaseProfiler
In short: as §1

STK25(h) = biological target: T16, STK25(h) (Homo sapiens, UniProt O00506)
T16 construct: purchased Eurofins KinaseProfiler
In short: as §1

CDK2/cyclinE(h) = biological target: T17, CDK2/cyclinE(h) (Homo sapiens, UniProt P24941)
T17 construct: purchased Eurofins KinaseProfiler
In short: as §1

NEK7(h) = biological target: T18, NEK7(h) (Homo sapiens, UniProt Q8TDX7)
T18 construct: purchased Eurofins KinaseProfiler
In short: as §1

Lck(h) = biological target: T19, Lck(h) (Homo sapiens, UniProt P06239)
T19 construct: purchased Eurofins KinaseProfiler
In short: as §1

MST1(h) = biological target: T20, MST1(h) (Homo sapiens, UniProt Q13043)
T20 construct: purchased Eurofins KinaseProfiler
In short: as §1

NEK1(h) = biological target: T21, NEK1(h) (Homo sapiens, UniProt Q96PY6)
T21 construct: purchased Eurofins KinaseProfiler
In short: as §1

TAO2(h) = biological target: T22, TAO2(h) (Homo sapiens, UniProt Q9UL54)
T22 construct: purchased Eurofins KinaseProfiler
In short: as §1

NIM1(h) = biological target: T23, NIM1(h) (Homo sapiens, UniProt Q8IY84)
T23 construct: purchased Eurofins KinaseProfiler
In short: as §1

MKK6(h) = biological target: T24, MKK6(h) (Homo sapiens, UniProt P52564)
T24 construct: purchased Eurofins KinaseProfiler
In short: as §1

FGFR3(h) = biological target: T25, FGFR3(h) (Homo sapiens, UniProt P22607)
T25 construct: purchased Eurofins KinaseProfiler
In short: as §1

BRK(h) = biological target: T26, BRK(h) (Homo sapiens, UniProt Q13882)
T26 construct: purchased Eurofins KinaseProfiler
In short: as §1

HIPK3(h) = biological target: T27, HIPK3(h) (Homo sapiens, UniProt Q9H422)
T27 construct: purchased Eurofins KinaseProfiler
In short: as §1

FGFR4(h) = biological target: T28, FGFR4(h) (Homo sapiens, UniProt P22455)
T28 construct: purchased Eurofins KinaseProfiler
In short: as §1

CSK(h) = biological target: T29, CSK(h) (Homo sapiens, UniProt P41240)
T29 construct: purchased Eurofins KinaseProfiler
In short: as §1

Aurora-B(h) = biological target: T30, Aurora-B(h) (Homo sapiens, UniProt Q96GD4)
T30 construct: purchased Eurofins KinaseProfiler
In short: as §1

EphA2(h) = biological target: T31, EphA2(h) (Homo sapiens, UniProt P29317)
T31 construct: purchased Eurofins KinaseProfiler
In short: as §1

EGFR(T790M)(h) = biological target: T32, EGFR(T790M)(h) (Homo sapiens, UniProt P00533, T790M)
T32 construct: purchased Eurofins KinaseProfiler
In short: as §1

CK2(h) = biological target: T33, CK2(h) (Homo sapiens, UniProt P68400)
T33 construct: purchased Eurofins KinaseProfiler
In short: as §1

DAPK1(h) = biological target: T34, DAPK1(h) (Homo sapiens, UniProt P53355)
T34 construct: purchased Eurofins KinaseProfiler
In short: as §1

HIPK2(h) = biological target: T35, HIPK2(h) (Homo sapiens, UniProt Q9H2X6)
T35 construct: purchased Eurofins KinaseProfiler
In short: as §1

CK1γ2(h) = biological target: T36, CK1γ2(h) (Homo sapiens, UniProt P78368)
T36 construct: purchased Eurofins KinaseProfiler
In short: as §1

Mer(h) = biological target: T37, Mer(h) (Homo sapiens, UniProt Q12866)
T37 construct: purchased Eurofins KinaseProfiler
In short: as §1

CaMKIIβ(h) = biological target: T38, CaMKIIβ(h) (Homo sapiens, UniProt Q13554)
T38 construct: purchased Eurofins KinaseProfiler
In short: as §1

DDR2(h) = biological target: T39, DDR2(h) (Homo sapiens, UniProt Q16832)
T39 construct: purchased Eurofins KinaseProfiler
In short: as §1

EphB2(h) = biological target: T40, EphB2(h) (Homo sapiens, UniProt P29323)
T40 construct: purchased Eurofins KinaseProfiler
In short: as §1

Bmx(h) = biological target: T41, Bmx(h) (Homo sapiens, UniProt P51813)
T41 construct: purchased Eurofins KinaseProfiler
In short: as §1

MKK4(m) = biological target: T42, MKK4(m) (Mus musculus, UniProt P47809)
T42 construct: purchased Eurofins KinaseProfiler
In short: as §1

T4 sequence (Q13557 whole entry): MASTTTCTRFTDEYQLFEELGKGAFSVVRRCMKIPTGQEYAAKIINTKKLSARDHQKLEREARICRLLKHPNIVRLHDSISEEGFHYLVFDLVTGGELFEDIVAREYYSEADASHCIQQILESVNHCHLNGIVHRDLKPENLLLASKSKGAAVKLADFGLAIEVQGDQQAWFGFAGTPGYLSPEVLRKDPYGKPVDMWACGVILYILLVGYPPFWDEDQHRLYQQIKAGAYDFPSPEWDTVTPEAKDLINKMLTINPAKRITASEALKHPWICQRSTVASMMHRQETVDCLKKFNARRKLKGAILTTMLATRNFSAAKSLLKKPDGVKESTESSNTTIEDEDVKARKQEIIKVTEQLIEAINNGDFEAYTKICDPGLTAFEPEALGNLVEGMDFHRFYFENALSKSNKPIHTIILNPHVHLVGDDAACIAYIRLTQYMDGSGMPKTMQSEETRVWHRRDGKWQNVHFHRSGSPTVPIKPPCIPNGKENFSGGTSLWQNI
T14 sequence (Q9P289 whole entry): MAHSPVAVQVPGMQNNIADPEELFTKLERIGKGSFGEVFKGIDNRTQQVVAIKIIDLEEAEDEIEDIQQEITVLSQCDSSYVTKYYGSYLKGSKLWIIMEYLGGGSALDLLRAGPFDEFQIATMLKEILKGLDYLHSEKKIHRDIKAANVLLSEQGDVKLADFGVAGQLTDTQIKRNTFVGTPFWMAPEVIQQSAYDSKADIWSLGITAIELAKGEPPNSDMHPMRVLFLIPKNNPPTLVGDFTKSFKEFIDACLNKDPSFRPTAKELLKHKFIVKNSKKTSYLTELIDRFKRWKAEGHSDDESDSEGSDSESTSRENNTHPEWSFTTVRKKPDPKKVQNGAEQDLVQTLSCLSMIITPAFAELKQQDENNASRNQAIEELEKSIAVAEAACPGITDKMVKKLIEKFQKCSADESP
T30 sequence (Q96GD4 whole entry): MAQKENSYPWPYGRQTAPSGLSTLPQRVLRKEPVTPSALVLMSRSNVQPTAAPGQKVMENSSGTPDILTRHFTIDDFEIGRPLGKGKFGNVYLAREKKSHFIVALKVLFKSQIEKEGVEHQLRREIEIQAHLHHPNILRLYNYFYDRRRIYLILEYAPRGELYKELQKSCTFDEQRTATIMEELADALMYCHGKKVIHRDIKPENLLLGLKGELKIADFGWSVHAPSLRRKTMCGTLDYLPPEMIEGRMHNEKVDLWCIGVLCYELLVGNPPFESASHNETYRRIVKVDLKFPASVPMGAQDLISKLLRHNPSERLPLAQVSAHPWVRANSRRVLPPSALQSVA
T28 sequence (P22455 22-802): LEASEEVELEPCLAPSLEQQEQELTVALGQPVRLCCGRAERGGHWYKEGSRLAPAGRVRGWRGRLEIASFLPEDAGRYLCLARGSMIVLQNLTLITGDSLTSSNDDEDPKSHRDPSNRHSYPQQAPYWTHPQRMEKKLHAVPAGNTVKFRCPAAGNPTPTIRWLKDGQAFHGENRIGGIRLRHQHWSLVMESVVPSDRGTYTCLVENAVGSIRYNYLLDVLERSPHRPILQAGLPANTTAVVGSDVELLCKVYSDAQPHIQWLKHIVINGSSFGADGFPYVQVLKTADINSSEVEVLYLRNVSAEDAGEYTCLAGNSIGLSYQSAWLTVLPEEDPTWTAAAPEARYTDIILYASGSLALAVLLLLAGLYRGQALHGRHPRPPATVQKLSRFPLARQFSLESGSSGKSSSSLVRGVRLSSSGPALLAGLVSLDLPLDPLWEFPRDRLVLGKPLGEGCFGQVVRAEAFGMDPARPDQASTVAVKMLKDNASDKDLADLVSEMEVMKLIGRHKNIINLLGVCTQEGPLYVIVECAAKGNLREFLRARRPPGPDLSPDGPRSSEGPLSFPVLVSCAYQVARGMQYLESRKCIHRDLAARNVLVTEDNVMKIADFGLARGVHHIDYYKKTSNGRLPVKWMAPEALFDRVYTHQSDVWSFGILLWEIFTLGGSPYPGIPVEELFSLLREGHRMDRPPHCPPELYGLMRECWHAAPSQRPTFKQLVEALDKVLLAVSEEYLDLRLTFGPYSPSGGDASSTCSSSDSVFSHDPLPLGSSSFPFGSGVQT
T33 sequence (P68400 whole entry): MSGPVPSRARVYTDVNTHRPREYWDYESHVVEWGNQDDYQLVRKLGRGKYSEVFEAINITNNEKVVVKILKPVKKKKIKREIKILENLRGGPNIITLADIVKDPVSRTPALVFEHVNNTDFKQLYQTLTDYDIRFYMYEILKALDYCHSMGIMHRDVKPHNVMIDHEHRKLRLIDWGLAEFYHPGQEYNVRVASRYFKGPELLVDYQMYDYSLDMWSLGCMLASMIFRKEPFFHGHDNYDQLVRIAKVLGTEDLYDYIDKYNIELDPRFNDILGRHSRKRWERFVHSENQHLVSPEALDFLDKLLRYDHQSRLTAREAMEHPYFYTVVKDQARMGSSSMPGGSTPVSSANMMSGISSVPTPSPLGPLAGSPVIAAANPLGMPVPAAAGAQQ
T33 sequence (P67870 whole entry partner): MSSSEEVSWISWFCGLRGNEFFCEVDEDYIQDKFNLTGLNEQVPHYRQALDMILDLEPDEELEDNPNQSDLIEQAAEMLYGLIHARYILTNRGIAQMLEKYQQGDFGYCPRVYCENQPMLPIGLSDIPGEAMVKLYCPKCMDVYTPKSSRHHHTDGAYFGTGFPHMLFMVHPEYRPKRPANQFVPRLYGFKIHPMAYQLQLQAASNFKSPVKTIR
T36 sequence (P78368 whole entry): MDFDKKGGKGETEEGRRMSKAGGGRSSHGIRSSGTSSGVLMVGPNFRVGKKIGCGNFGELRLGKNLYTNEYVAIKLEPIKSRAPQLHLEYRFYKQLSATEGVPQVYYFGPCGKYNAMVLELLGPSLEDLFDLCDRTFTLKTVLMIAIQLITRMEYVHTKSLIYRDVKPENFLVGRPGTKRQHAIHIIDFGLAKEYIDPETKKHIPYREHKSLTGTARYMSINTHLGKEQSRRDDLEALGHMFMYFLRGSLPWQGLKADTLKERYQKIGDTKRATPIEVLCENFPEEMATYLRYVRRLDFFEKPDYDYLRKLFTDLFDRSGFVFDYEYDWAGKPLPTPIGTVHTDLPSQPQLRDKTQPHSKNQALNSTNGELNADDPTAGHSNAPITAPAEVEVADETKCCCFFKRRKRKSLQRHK
T34 sequence (P53355 whole entry): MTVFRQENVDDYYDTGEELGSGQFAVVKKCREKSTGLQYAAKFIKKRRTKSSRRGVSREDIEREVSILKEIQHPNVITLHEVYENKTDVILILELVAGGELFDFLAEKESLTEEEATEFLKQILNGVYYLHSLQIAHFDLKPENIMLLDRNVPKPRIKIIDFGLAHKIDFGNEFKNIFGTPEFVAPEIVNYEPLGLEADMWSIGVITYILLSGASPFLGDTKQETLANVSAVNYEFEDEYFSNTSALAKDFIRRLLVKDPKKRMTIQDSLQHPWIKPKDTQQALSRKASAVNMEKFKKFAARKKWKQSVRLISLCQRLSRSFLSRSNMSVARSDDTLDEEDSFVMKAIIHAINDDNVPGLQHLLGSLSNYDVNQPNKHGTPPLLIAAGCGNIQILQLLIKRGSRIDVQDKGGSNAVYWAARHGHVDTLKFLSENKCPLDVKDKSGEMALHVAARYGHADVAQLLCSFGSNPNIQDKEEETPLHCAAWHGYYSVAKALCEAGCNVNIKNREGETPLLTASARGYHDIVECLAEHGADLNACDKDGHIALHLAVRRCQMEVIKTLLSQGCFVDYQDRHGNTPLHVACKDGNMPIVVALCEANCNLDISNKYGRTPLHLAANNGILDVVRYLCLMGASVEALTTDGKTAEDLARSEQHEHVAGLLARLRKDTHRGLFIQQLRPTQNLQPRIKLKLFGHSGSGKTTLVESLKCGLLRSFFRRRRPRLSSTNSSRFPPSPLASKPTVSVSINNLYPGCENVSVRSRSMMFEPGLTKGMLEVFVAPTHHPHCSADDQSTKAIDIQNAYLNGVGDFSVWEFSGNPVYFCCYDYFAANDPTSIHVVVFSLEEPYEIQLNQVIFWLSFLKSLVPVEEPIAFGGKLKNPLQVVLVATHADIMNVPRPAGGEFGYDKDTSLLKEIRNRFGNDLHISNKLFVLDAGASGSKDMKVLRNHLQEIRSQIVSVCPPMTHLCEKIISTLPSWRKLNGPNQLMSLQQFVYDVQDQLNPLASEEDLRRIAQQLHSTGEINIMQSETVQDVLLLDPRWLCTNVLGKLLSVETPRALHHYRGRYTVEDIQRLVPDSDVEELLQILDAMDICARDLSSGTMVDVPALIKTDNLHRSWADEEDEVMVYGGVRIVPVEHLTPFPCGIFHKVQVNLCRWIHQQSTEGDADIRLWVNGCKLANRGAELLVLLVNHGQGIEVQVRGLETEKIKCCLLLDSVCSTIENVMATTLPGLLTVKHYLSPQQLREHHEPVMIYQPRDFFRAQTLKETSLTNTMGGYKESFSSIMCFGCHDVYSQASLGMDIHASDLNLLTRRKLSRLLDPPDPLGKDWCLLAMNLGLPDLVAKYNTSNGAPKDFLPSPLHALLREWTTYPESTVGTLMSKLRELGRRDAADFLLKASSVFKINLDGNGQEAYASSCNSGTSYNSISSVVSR
T16 sequence (O00506 whole entry): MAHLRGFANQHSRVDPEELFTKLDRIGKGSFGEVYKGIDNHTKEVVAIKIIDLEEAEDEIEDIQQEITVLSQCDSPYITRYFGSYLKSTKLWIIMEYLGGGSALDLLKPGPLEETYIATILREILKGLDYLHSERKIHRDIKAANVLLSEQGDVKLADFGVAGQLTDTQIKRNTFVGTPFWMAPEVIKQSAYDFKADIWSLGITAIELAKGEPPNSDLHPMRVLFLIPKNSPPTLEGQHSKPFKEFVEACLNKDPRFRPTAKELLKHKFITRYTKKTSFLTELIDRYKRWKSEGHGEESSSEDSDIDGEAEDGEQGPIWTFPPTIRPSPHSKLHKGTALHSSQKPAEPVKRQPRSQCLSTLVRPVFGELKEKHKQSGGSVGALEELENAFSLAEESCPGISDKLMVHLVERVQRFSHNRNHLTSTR

SMILES: COc1ccc(CCc2cc(OC)c(OC)c(OC)c2)cc1O [Erianin]
activity at 0.1 µM (EphA4(h)): 93% | activity at 0.1 µM (Flt1(h)): 117% | activity at 0.1 µM (Ros(h)): 103% | activity at 0.1 µM (CaMKIIδ(h)): 103% | activity at 0.1 µM (Wee1(h)): 111% | activity at 0.1 µM (TYK2(h)): 100% | activity at 0.1 µM (Pim-3(h)): 91% | activity at 0.1 µM (EphB1(h)): 91% | activity at 0.1 µM (Pim-2(h)): 103% | activity at 0.1 µM (EphB3(h)): 95% | activity at 0.1 µM (ZIPK(h)): 111% | activity at 0.1 µM (Rsk2(h)): 106%

activity at 10 µM (PAK5(h)): 98% | activity at 10 µM (MST4(h)): 140% | activity at 10 µM (CDK18/cyclinY(h)): 65% | activity at 10 µM (STK25(h)): 105% | activity at 10 µM (CDK2/cyclinE(h)): 57% | activity at 10 µM (NEK7(h)): 101% | activity at 10 µM (Lck(h)): 89% | activity at 10 µM (MST1(h)): 65% | activity at 10 µM (NEK1(h)): 77% | activity at 10 µM (TAO2(h)): 78%
SMILES: C=C1C(=O)[C@]23[C@H](O)[C@H]1CC[C@H]2[C@@]12CO[C@]3(O)[C@@H](O)[C@@H]1C(C)(C)CC[C@@H]2O [Oridonin]

activity at 10 µM (NIM1(h)): 121% | activity at 10 µM (MKK6(h)): 112% | activity at 10 µM (FGFR3(h)): 98% | activity at 10 µM (BRK(h)): 105% | activity at 10 µM (HIPK3(h)): 106% | activity at 10 µM (FGFR4(h)): 87% | activity at 10 µM (CSK(h)): 100% | activity at 10 µM (Aurora-B(h)): 86% | activity at 10 µM (EphA2(h)): 97% | activity at 10 µM (EGFR(T790M)(h)): 117% | activity at 10 µM (CK2(h)): 84% | activity at 10 µM (DAPK1(h)): 103% | activity at 10 µM (HIPK2(h)): 100% | activity at 10 µM (CK1γ2(h)): 108% | activity at 10 µM (Mer(h)): 109% | activity at 10 µM (CaMKIIβ(h)): 104% | activity at 10 µM (DDR2(h)): 106% | activity at 10 µM (EphB2(h)): 98% | activity at 10 µM (Bmx(h)): 89% | activity at 10 µM (MKK4(m)): 101%
SMILES: COc1cc2oc(-c3ccc(O)c(O)c3)cc(=O)c2c(O)c1OC [Cirsiliol]
